Data as given in US10670605B2, “Cysteine reactive probes and uses thereof” (The Scripps Research Institute, priority 2015, dated 2020).
Each block holds one molecule with its values, some of them ahead of it.

Assays:
Assay in all cases: Competitive isoTOP-ABPP in situ (fragment-treated cells)
Assay type in all cases: cell-based
[1] = biological target: cysteines in MDA-MB-231 and Ramos cells (Homo sapiens, UniProt Q92616); conditions: 200 μM, insitu
[2] = biological target: T1, cysteines in MDA-MB-231 and Ramos cells (Homo sapiens, UniProt Q9UL40); conditions: 200 μM, insitu
T1 sequence (Q9UL40 1-294): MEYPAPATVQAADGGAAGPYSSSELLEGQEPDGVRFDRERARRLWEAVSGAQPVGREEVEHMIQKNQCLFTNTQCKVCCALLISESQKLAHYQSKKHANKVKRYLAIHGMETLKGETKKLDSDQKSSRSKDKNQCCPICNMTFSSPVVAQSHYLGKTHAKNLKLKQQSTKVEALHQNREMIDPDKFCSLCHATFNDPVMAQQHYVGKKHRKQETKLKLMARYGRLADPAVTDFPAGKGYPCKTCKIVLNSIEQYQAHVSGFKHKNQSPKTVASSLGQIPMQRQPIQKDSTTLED

[3] = biological target: T2, cysteines in MDA-MB-231 and Ramos cells (Homo sapiens, UniProt Q16667); conditions: 200 μM, insitu
T2 sequence (Q16667 1-212): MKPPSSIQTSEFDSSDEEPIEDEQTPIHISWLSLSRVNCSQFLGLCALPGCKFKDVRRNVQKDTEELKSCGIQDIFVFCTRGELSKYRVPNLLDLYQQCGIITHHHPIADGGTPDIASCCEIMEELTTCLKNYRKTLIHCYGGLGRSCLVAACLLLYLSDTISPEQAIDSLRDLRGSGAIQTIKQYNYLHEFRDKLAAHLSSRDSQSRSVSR

[4] = biological target: T3, cysteines in MDA-MB-231 and Ramos cells (Homo sapiens, UniProt Q8IZ73); conditions: 200 μM, insitu
T3 sequence (Q8IZ73 1-545): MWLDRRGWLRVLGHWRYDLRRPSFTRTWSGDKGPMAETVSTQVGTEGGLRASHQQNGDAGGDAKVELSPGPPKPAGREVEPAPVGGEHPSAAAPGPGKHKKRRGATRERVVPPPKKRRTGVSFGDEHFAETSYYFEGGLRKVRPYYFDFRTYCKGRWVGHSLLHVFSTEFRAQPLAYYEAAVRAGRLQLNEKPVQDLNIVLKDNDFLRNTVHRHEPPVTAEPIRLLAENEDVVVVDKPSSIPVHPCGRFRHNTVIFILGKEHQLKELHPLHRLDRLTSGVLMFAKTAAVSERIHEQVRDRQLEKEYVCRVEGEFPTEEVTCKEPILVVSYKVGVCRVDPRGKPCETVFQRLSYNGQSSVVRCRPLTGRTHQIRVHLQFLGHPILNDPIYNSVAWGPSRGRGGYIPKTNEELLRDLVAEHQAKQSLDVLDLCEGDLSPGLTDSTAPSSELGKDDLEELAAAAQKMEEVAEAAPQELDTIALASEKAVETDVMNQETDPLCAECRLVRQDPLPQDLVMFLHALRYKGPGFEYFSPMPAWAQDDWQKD

[5] = biological target: T4, cysteines in MDA-MB-231 and Ramos cells (Homo sapiens, UniProt O94953); conditions: 200 μM, insitu, ramos
T4 sequence (O94953 1-1096): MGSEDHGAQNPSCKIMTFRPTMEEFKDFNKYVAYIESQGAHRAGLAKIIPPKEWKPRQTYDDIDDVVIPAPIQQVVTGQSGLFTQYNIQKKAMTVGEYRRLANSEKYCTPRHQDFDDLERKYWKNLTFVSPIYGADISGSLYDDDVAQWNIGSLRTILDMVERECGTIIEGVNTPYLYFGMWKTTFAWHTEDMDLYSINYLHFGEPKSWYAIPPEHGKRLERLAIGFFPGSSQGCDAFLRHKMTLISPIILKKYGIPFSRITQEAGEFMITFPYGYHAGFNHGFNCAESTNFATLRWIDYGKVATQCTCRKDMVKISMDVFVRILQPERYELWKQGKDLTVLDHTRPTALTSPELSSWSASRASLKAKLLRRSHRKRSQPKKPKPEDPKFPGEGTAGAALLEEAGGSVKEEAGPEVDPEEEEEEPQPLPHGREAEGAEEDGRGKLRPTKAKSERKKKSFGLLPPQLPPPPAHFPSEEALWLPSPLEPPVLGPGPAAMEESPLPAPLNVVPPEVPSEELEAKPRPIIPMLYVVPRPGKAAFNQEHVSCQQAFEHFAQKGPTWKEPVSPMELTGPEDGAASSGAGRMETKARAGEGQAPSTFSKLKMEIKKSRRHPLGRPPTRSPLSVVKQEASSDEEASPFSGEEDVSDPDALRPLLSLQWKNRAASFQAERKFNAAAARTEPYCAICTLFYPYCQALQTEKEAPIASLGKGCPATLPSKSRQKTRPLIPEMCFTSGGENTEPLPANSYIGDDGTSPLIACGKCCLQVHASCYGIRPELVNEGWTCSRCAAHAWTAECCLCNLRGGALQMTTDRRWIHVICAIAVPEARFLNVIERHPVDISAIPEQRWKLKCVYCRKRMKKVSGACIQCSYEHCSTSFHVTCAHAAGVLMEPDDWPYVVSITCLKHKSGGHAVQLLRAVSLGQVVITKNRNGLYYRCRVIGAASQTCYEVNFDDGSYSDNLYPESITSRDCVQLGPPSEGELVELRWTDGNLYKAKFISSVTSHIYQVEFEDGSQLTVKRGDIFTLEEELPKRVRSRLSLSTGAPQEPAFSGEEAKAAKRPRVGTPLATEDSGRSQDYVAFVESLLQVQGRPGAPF

[6] = biological target: T5, cysteines in MDA-MB-231 and Ramos cells (Homo sapiens, UniProt Q9NUI1); conditions: for isoTOP-ABPP ratio Q9NUI1_C22: 200 μM, insitu, 231
T5 sequence (Q9NUI1 1-292): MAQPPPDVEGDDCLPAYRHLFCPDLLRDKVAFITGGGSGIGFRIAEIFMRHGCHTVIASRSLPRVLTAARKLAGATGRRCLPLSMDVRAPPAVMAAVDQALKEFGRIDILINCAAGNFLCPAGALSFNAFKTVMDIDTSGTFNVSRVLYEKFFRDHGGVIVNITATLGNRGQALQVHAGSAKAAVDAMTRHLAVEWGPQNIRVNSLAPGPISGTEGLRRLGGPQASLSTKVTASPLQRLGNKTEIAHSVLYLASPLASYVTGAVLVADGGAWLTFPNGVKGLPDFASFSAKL

cysteines in MDA-MB-231 and Ramos cells (Homo sapiens, UniProt Q92616), sequence (Q92616 whole entry): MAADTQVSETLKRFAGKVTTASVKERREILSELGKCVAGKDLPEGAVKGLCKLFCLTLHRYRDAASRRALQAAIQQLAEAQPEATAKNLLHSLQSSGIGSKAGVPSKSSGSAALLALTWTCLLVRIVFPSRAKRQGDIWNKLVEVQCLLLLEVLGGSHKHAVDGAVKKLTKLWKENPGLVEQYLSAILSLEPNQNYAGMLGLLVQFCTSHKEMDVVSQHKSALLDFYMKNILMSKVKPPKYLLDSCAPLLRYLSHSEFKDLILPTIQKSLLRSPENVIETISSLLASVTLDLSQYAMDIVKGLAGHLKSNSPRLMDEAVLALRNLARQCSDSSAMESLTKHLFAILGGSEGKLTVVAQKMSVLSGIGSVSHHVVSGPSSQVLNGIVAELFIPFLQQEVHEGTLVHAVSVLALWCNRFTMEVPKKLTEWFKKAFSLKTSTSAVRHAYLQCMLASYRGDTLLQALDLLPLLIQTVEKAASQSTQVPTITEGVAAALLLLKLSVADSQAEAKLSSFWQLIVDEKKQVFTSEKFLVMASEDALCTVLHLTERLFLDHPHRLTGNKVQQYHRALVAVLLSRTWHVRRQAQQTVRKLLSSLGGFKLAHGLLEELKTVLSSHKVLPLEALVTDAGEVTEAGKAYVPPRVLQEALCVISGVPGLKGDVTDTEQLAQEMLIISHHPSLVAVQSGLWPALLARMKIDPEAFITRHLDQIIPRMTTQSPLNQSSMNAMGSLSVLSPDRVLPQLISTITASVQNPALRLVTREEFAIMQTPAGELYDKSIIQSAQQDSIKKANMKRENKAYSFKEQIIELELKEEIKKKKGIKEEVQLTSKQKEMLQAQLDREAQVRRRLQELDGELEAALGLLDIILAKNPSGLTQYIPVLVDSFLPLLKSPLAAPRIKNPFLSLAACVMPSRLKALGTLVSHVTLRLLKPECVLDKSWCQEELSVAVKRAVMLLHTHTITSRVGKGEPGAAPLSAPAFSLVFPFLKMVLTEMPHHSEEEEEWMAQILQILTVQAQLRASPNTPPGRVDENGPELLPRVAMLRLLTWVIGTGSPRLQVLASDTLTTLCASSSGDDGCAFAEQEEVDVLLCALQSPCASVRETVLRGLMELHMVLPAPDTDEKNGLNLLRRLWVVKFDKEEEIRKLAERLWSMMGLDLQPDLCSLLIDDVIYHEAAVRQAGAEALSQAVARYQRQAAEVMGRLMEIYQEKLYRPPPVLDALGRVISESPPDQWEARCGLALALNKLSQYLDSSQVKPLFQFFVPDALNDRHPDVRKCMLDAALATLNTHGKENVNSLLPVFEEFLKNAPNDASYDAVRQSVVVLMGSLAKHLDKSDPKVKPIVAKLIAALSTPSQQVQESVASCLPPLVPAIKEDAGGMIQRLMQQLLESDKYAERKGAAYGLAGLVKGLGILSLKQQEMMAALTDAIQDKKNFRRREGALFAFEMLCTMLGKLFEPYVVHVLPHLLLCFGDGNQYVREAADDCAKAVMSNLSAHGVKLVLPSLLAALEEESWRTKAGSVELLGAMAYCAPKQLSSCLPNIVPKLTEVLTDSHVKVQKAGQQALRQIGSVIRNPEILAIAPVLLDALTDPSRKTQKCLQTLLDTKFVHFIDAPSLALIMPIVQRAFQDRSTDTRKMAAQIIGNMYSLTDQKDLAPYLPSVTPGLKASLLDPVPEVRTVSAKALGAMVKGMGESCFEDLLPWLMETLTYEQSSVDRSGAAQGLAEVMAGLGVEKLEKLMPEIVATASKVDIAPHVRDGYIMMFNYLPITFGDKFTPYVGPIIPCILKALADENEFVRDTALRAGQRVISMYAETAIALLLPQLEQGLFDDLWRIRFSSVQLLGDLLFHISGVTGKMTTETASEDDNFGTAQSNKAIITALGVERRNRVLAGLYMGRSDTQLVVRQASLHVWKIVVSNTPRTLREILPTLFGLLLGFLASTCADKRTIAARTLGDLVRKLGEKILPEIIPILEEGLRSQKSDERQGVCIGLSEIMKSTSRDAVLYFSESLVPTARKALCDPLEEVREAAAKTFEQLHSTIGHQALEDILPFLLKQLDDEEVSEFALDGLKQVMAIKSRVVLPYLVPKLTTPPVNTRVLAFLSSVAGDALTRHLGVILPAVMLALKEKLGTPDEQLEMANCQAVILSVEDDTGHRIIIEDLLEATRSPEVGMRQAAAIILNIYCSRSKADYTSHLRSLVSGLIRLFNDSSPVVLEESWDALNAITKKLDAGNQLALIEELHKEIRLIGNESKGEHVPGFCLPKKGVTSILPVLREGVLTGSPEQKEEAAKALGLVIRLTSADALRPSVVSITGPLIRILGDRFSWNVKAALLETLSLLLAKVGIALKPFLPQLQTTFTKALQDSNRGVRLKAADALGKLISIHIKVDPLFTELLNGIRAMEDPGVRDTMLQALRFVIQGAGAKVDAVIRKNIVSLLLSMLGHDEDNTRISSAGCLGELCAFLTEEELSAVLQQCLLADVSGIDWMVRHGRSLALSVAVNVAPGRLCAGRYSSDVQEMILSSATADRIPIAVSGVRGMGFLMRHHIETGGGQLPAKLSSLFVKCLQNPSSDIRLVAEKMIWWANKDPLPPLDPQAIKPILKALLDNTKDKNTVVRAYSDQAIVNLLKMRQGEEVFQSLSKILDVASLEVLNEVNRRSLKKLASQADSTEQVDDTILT

Compound: COc1ccc2c(c1)CCCN2C(=O)CCl [compound 2]
isoTOP-ABPP reactivity Q92616_C1692 GCN1L1 [1]; 231: 1.4

Compound: O=C(CCl)NC(=O)NC12CC3CC(CC(C3)C1)C2 [compound 12]
isoTOP-ABPP ratio, cysteine Q9UL40_C68 [2]; 231: 20.0

Compound: O=C(CCl)NC12CC3CC(CC(C3)C1)C2 [compound 21]
isoTOP-ABPP ratio, cysteine Q16667_C39 [3]; 231: 0.8 | isoTOP-ABPP ratio, cysteine Q8IZ73_C246 [4]; 231: 1.8

Compound: O=C(CCl)N1CCN(S(=O)(=O)c2ccccc2F)CC1 [compound 10]
isoTOP-ABPP ratio, cysteine Q16667_C39 [3]; 231: 2.3 | isoTOP-ABPP ratio, cysteine O94953_C694 [5]: 3.9

Compound: Cn1cc(S(=O)(=O)N2CCOCC2)cc1C(=O)NC(=O)CCl [compound 11]
isoTOP-ABPP ratio, cysteine Q9NUI1_C22 ([6]; 100 μM in situ 231): 2.1

Compound: O=C(CCl)NCCc1c[nH]c2ccccc12 [compound 13]
isoTOP-ABPP ratio, cysteine Q16667_C39 ([3]; ramos): 1.2 | isoTOP-ABPP ratio, cysteine Q92616_C1692 ([1]; ramos): 0.9 | isoTOP-ABPP ratio, cysteine O94953_C694 [5]: 1.5 | isoTOP-ABPP ratio, cysteine Q9UL40_C68 ([2]; ramos): 20.0

Now from value to molecule:

isoTOP-ABPP ratio Q92616_C1692 [1]; 231: 0.5 | isoTOP-ABPP ratio Q9UL40_C68 [2]; 231: 1.9
Compound: CC(C)CCOCCNC(=O)CCl [compound 27]

isoTOP-ABPP ratio Q92616_C1692 [1]; 231: 0.7
Compound: Cc1ccc(C=C(C#N)C(=O)NCCN2CCOCC2)cc1 [compound 41]

isoTOP-ABPP ratio Q9NUI1_C22 [6]: 17.0
Compound: CC1CCc2ccccc2N1C(=O)CCl (stereo not drawn) [compound 45]

isoTOP-ABPP ratio Q8IZ73_C246 [4]; 231: 1.7
Compound: C=CC(=O)Nc1cc(F)c(N2CCN(C(=O)OC(C)(C)C)CC2)c(F)c1 [compound 38]

isoTOP-ABPP ratio Q8IZ73_C246 [4]; 231: 0.4 | isoTOP-ABPP ratio Q8IZ73_C246 ([4]; ramos): 1.0 | isoTOP-ABPP ratio Q92616_C1692 [1]; 231: 0.6 | isoTOP-ABPP ratio Q92616_C1692 ([1]; ramos): 2.0 | isoTOP-ABPP ratio Q9NUI1_C22 [6]: 0.7
Compound: C=CC(=O)N(Cc1cccnc1)c1cc(C(F)(F)F)cc(C(F)(F)F)c1 [compound 31]

isoTOP-ABPP ratio Q16667_C39 ([3]; ramos): 1.7 | isoTOP-ABPP ratio, O94953_C694 [5]: 1.1 | isoTOP-ABPP ratio Q9UL40_C68 ([2]; ramos): 2.4
Compound: O=C(CCl)N1CCN(CC(=O)N2CCOCC2)CC1 [compound 29]
